In brackets after ≈: the same amount, converted by molar mass. Activity calls are given as the source filed them. The rule behind the calls is not given here.
Legend:
Bacillus subtilis = test: Antibacterial activity against Bacillus subtilis incubated for 24 hrs by resazurin based assay; format: functional
MCF7 = test: Cytotoxicity against human MCF7 cells assessed as reduction in cell viability after 24 hrs by PrestoBlue dye based fluorescence assay; format: functional; details: MCF7, 24 h
Escherichia coli = test: Antibacterial activity against Escherichia coli incubated for 24 hrs by resazurin based assay; format: functional, organism-based

Row | Compound | MIC (Bacillus subtilis) | EC50 (MCF7) | Activity (Escherichia coli)
1 | COc1cc(O)c2c(c1)OC(c1ccc(O)cc1)C(C1C(=O)c3c(O)cc(OC)cc3OC1c1ccc(O)cc1)C2=O (stereo not drawn) | > 250 µM | – | –
2 | COc1ccc([C@H]2Oc3cc(OC)cc(O)c3C(=O)[C@@H]2[C@H]2C(=O)c3c(O)cc(OC)cc3O[C@@H]2c2ccc(O)cc2)cc1 | > 250 µM | – | –
3 | O=C(c1ccc(O)cc1O)[C@H]1[C@H](C(=O)c2ccc(O)cc2O)[C@H](c2ccc(O)cc2)O[C@@H]1c1ccc(O)cc1 | > 250 µM | 24 µM | inactive
4 | O=C(/C=C/c1ccc(O)c(Oc2ccc(CCC(=O)c3ccc(O)cc3O)cc2)c1)c1ccc(O)cc1O | > 250 µM | – | –
5 | O=C1c2ccc(O)cc2O[C@@H](c2ccc(O)cc2)[C@@H]1[C@@H]1C(=O)c2ccc(O)cc2O[C@H]1c1ccc(O)cc1 | > 250 µM | – | –
6 | COc1cc(O)c2c(c1)O[C@@H](c1ccc(O)cc1)[C@H]([C@@H]1C(=O)c3ccc(O)cc3O[C@H]1c1ccc(O)cc1)C2=O | 14 µM (≈ 7.57 µg/mL) | – | –
